Data reported in publication PMC8508980, “Design, Synthesis and Anticancer Profile of New 4-(1H-benzo[d]imidazol-1-yl)pyrimidin-2-amine-Linked Sulfonamide Derivatives with V600EBRAF Inhibitory Effect” (International Journal of Molecular Sciences, 2021).

How the values were obtained:
Format in all cases: cell-based
SN12C = experiment: NCI 60 cell line screen; conditions: Homo sapiens, Renal Cancer, read-out: Percent growth
Description: (§1) Anticancer profiling over a panel of 60 cancer cell lines was carried out at the National Cancer Institute (NCI), Bethesda, Maryland, USA, https://dtp.cancer.gov/discovery_development/nci-60/methodology.htm (Last visit 22 September 2021), using the standard procedure (detailed procedure is located in the Supplementary Information page 50 s).
(§2) NCI standard procedure for 60 cell lines assay
(§3) The human tumor cell lines of the cancer screening panel are grown in RPMI 1640 mediu m containing 5% fetal bovine serum and 2 mM L-glutamine. For a typical screening experiment, cells are inoculated into 96 well microtiter plates in 100 μL at plating densities ranging from 5,000 to 40,000 cells/well depending on the doubling time of individual cell lines. After cell inoculation, the microtiter plates are incubated at 37° C, 5 % CO2, 95 % air and 100 % relative humidity for 24 h prior to addition of experimental drugs.
(§4) After 24 h, two plates of each cell line are fixed in situ with TCA, to represent a measurement of the cell population for each cell line at the time of drug addition (Tz). Experimental drugs are solubilized in dimethyl sulfoxide at 400-fold the desired final maximum test concentration (10 µM) and stored frozen prior to use. At the time of drug addition, an aliquot of frozen concentrate is thawed and diluted to twice the desired final maximum test concentration with co mp lete medium containing 50 μg/ml gentamicin. Additional four, 10-fold or ½ log serial dilutions are made to provide a total of five drug concentrations plus control. Aliquots of 100 μl of these different drug dilutions are added to the appropriate microtiter wells already containing 100 μl of medium, resulting in the required final drug concentrations.
(§5) Following drug addition, the plates are incubated for an additional 48 h at 37°C, 5 % CO2, 95 % air, and 100 % relative humidity. For adherent cells, the assay is terminated by the addition of cold TCA. Cells are fixed in situ by the gentle addition of 50 μl of cold 50 % (w/v) TCA (final concentration, 10 % TCA) and incubated for 60 minutes at 4°C. The supernatant is discarded, and the plates are washed five times with tap water and air dried. Sulforhodamine B (SRB) solution (100 μl) at 0.4 % (w/v) in 1 % acetic acid is added to each well, and plates are incubated for 10 minutes at room temperature. After staining, unbound dye is removed by washing five times with 1 % acetic acid and the plates are air dried. Bound stain is subsequently solubilized with 10 mM trizma base, and the absorbance is read on an automated plate reader at a wavelength of 515 nm. For suspension cells, the methodology is the same except that the assay is terminated by fixing settled cells at the bottom of the wells by g ently adding 50 μl of 80 % TCA (final concentration, 16 % TCA). Using the seven absorbance measurements [time zero, (Tz), control growth, (C), and test growth in the presence of drug at the five concentration levels (Ti)], the percentage growth is calculated at each of the drug concentrations levels. Percentage growth inhibition is calculated as:
(§6) [(Ti-Tz)/(C-Tz)] x 100 for concentrations for which Ti>/=Tz
(§7) [(Ti-Tz)/Tz] x 100 for concentrations for which Ti<Tz.
(§8) Three dose response parameters are calculated for each experimental agent. Growth inhibition of […]
(§9) resulting in a 50% reduction in the net protein increase (as measured by SRB staining) in control cells during the drug incubation. The drug concentration resulting in total growth inhibition […]
(§10) (TGI) is calculated from Ti = Tz.

BT-549 = experiment: NCI 60 cell line screen; conditions: Homo sapiens; BT-549, Breast Cancer; read-out: Percent growth
Description: as §1, §2, §3, §4, §5, §6, §7, §8, §9, §10

COLO 205 = experiment: NCI 60 cell line screen; conditions: Homo sapiens; COLO 205, Colon Cancer; read-out: Percent growth
Description: as §1, §2, §3, §4, §5, §6, §7, §8, §9, §10

OVCAR-8 = experiment: NCI 60 cell line screen; conditions: Homo sapiens; OVCAR-8, Ovarian Cancer; read-out: Percent growth
Description: as §1, §2, §3, §4, §5, §6, §7, §8, §9, §10

CCRF-CEM = experiment: NCI 60 cell line screen; conditions: Homo sapiens, Leukemia, read-out: Percent growth
Description: as §1, §2, §3, §4, §5, §6, §7, §8, §9, §10

SK-MEL-2 = experiment: NCI 60 cell line screen; conditions: Homo sapiens; SK-MEL-2, Melanoma; read-out: Percent growth
Description: as §1, §2, §3, §4, §5, §6, §7, §8, §9, §10

SW-620 = experiment: NCI 60 cell line screen; conditions: Homo sapiens; SW-620, Colon Cancer; read-out: Percent growth
Description: as §1, §2, §3, §4, §5, §6, §7, §8, §9, §10

OVCAR-3 = experiment: NCI 60 cell line screen; conditions: Homo sapiens; OVCAR-3, Ovarian Cancer; read-out: Percent growth
Description: as §1, §2, §3, §4, §5, §6, §7, §8, §9, §10

SK-OV-3 = experiment: NCI 60 cell line screen; conditions: Homo sapiens; SK-OV-3, Ovarian Cancer; read-out: Percent growth
Description: as §1, §2, §3, §4, §5, §6, §7, §8, §9, §10

SNB-19 = experiment: NCI 60 cell line screen; conditions: Homo sapiens; SNB-19, CNS-Cancer; read-out: Percent growth
Description: as §1, §2, §3, §4, §5, §6, §7, §8, §9, §10

DU-145 = experiment: NCI 60 cell line screen; conditions: Homo sapiens; DU-145, Prostate Cancer; read-out: Percent growth
Description: as §1, §2, §3, §4, §5, §6, §7, §8, §9, §10

A498 = experiment: NCI 60 cell line screen; conditions: Homo sapiens; A498, Renal Cancer; read-out: Percent growth
Description: as §1, §2, §3, §4, §5, §6, §7, §8, §9, §10

SK-MEL-5 cells = experiment: Antiproliferative MTT assay; conditions: Homo sapiens, 48 h, mean ± S.D. of two experiments
Description: (§11) The effect of final target compounds over A375 and SK-MEL-5 was performed using reported procedures (detailed procedure is located in the Supplementary Information page 51s). […]
(§12) Evaluation of the Antiproliferative Activity Against A375 and SK-MEL-5
(§13) A375 and SK-MEL-5 cells were purchased from American Type Culture Collection (ATCC, Ro ckv ille, MD, USA) and maintained in Dulbecco’s modified eagle medium (DMEM, Welgene, Daegu, Republic of Korea) supplemented with 10% fetal bovine serum (FBS, Welgene, Daegu, Republic of Korea) and 1% penicillin/streptomycin (Welgene, Daegu, Republic of Korea) in a hu midified atmo sphere with 5% CO2 at 37 °C. Both cells were taken from culture substrate with 0.05% trypsin-0.02% EDTA and plated at a density of 5 × 10^3 cells/well in 96 well plates and then incubated at 37 °C fo r 24 h in a hu midified atmo sphere with 5% CO2 prior to treatment with various concentrations (3-fold serial dilution, 12 points) of the tested compounds. The cells were incubated for 48 h after treatment with the test compounds. The cell viability was assessed by the conventional 3-(4,5-dimethylthiazol-2-yl)-2,5-diphenyltetrazolium bromide (MTT) reduction assay. MTT assays were carried out with CellTiter 96® (Promega) according to the manufacturer’s instructions. The absorbance at 590 nm was recorded using EnVision 2103 (Perkin Elmer; Bo ston , MA, USA). The IC50 values were calculated using GraphPad Prism 4.0

A375 cells = experiment: Antiproliferative MTT assay; conditions: Homo sapiens, A-375, 48 h, mean ± S.D. of two experiments
Description: as §11, §12, §13

Row | Structure (SMILES) | activity at 10 µM (SN12C) | activity at 10 µM (BT-549) | activity at 10 µM (COLO 205) | activity at 10 µM (OVCAR-8) | activity at 10 µM (CCRF-CEM) | activity at 10 µM (SK-MEL-2) | activity at 10 µM (SW-620) | activity at 10 µM (OVCAR-3) | activity at 10 µM (SK-OV-3) | activity at 10 µM (SNB-19) | activity at 10 µM (DU-145) | activity at 10 µM (A498) | IC50 (SK-MEL-5 cells) | IC50 (A375 cells)
1 | O=S(=O)(NCCNc1nccc(-n2cnc3ccccc32)n1)c1ccccc1 [12a, N-(2-((4-(1H-benzo [d]imidazol-1-yl)pyrimidin-2-yl)amino)ethyl)benzenesulfonamide] | 85.1% | 106% | 101% | 98% | 96% | 115% | 112% | 109% | 101% | 99.6% | 109% | 88.6% | 20.4 ± 0.86 µM | 12.8 ± 0.41 µM
2 | O=S(=O)(NCCNc1nccc(-n2cnc3ccccc32)n1)c1ccc(F)cc1 [12b, N-(2-((4-(1H-benzo [d]imidazol-1-yl)pyrimidin-2-yl)amino)ethyl)-4-fluorobenzenesulfonamide] | 89.7% | 82.2% | 102% | 89% | 93.5% | 101% | 100% | 106% | 102% | 93% | 91.5% | 80.7% | 15.6 ± 0.37 µM | 10.5 ± 0.22 µM
3 | O=S(=O)(NCCNc1nccc(-n2cnc3ccccc32)n1)c1ccc(Cl)cc1 [12c, N-(2-((4-(1H-benzo [d]imidazol-1-yl)pyrimidin-2-yl)amino)ethyl)-4-chlorobenzenesulfonamide] | 96.6% | 99.3% | 104% | 102% | 103% | 109% | 100% | 106% | 112% | 97.7% | 104% | 84.8% | 17.6 ± 0.49 µM | 11 ± 0.36 µM
4 | O=S(=O)(NCCNc1nccc(-n2cnc3ccccc32)n1)c1ccc(Br)cc1 [12d, N-(2-((4-(1H-benzo [d]imidazol-1-yl)pyrimidin-2-yl)amino)ethyl)-4-bromobenzenesulfonamide] | 91.5% | 115% | 107% | 95.6% | 101% | 108% | 110% | 103% | 99.9% | 101% | 99.9% | 76.3% | 19.7 ± 0.51 µM | 11.8 ± 0.71 µM
5 | O=S(=O)(NCCNc1nccc(-n2cnc3ccccc32)n1)c1ccc(C(F)(F)F)cc1 [12e, N-(2-((4-(1H-benzo [d]imidazol-1-yl)pyrimidin-2-yl)amino)ethyl)-4-(trifluoromethyl)benzenesulfonamide] | 72.5% | 53.1% | 64.9% | 63.5% | 57.6% | 67.8% | 83.5% | 72.9% | 62.2% | 69.8% | 71.8% | 56.6% | 6.54 ± 0.18 µM | 2.89 ± 0.14 µM
6 | COc1ccc(S(=O)(=O)NCCNc2nccc(-n3cnc4ccccc43)n2)cc1 [12f, N-(2-((4-(1H-benzo [d]imidazol-1-yl)pyrimidin-2-yl)amino)ethyl)-4-methoxy benzenesulfonamide] | 88.5% | 97.8% | 99.8% | 91.5% | 102% | 106% | 103% | 103% | 97.5% | 95.3% | 99.9% | 82.9% | 18.7 ± 0.69 µM | 12.6 ± 0.44 µM
7 | Cc1ccc(S(=O)(=O)NCCNc2nccc(-n3cnc4ccccc43)n2)cc1 [12g, N-(2-((4-(1H-benzo [d]imidazol-1-yl)pyrimidin-2-yl)amino)ethyl)-4-methyl benzenesulfonamide] | 79% | 63.7% | 86.8% | 79.8% | 69.5% | 87.7% | 90.8% | 82% | 79.5% | 86.8% | 89.3% | 62.1% | 8.25 ± 0.12 µM | 7.22 ± 0.23 µM
8 | O=S(=O)(NCCCNc1nccc(-n2cnc3ccccc32)n1)c1ccccc1 [12h, N-(3-((4-(1H-benzo [d]imidazol-1-yl)pyrimidin-2-yl)amino)propyl)benzenesulfonamide] | 94.3% | 96.5% | 102% | 84% | 88.1% | 108% | 107% | 106% | 105% | 103% | 99.2% | 78.4% | 11.3 ± 0.29 µM | 9.26 ± 0.16 µM
9 | O=S(=O)(NCCCNc1nccc(-n2cnc3ccccc32)n1)c1ccc(F)cc1 [12i, N-(3-((4-(1H-benzo [d]imidazol-1-yl)pyrimidin-2-yl)amino)propyl)-4-fluorobenzenesulfonamide] | 89% | 34.9% | 86% | 62.5% | 49% | 85.8% | 96.2% | 86.7% | 85.2% | 92.6% | 87.2% | 70.5% | 2.36 ± 0.21 µM | 1.95 ± 0.13 µM
